The supplement of paper PMC10307832

Key:
Assay in all cases: relative viability (nuclei count vs DMSO), 5 days (fraction); higher = more cells survive
[1] = compound: CC[C@H](Nc1ncnc2[nH]cnc12)c1nc2cccc(F)c2c(=O)n1-c1ccccc1 [Idelalisib] + Cc1nc(Nc2ncc(C(=O)Nc3c(C)cccc3Cl)s2)cc(N2CCN(CCO)CC2)n1 [Dasatinib] (partner 0.075 µM)
Procedure, shortened: (§1)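 After 5 days of treatment, lung cancer cells in 1536-well plates were fixed and stained in a single step (final 0.05% Triton X-100, 1% formaldehyde, 1 ug/ml Hoechst) and their nuclei counted on 4× images. Treatment had been applied by pin tool the day after seeding as one drug alone or as a fixed anchor-drug dose with five library-drug doses (not always all listed) in √10 steps. Relative viability is the nuclei count of treated wells divided by that of vehicle wells, and values are medians of duplicate plates.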

[2] = compound: CC[C@H](Nc1ncnc2[nH]cnc12)c1nc2cccc(F)c2c(=O)n1-c1ccccc1 [Idelalisib] + Nc1ncn([C@H]2C[C@H](O)[C@@H](CO)O2)c(=O)n1 [Decitabine] (partner 2 µM)
Procedure, shortened: as §1

[3] = compound: Nc1nc2[nH]cc(CCc3ccc(C(=O)N[C@@H](CCC(=O)O)C(=O)O)cc3)c2c(=O)[nH]1 [Pemetrexed] + CC1(C)CCC(c2ccc(Cl)cc2)=C(CN2CCN(c3ccc(C(=O)NS(=O)(=O)c4ccc(N[C@H](CCN5CCOCC5)CSc5ccccc5)c(S(=O)(=O)C(F)(F)F)c4)cc3)CC2)C1 [Navitoclax] (partner 0.5 µM)
Procedure, shortened: as §1

[4] = compound: Nc1nc2[nH]cc(CCc3ccc(C(=O)N[C@@H](CCC(=O)O)C(=O)O)cc3)c2c(=O)[nH]1 [Pemetrexed] + Cc1nc(Nc2ncc(C(=O)Nc3c(C)cccc3Cl)s2)cc(N2CCN(CCO)CC2)n1 [Dasatinib] (partner 0.075 µM)
Procedure, shortened: as §1

Cell Line	relative viability ([1]; first compound 0.04 µM)	relative viability ([1]; first compound 0.1265 µM)	relative viability ([1]; first compound 0.4 µM)	relative viability ([1]; first compound 1.265 µM)	relative viability ([1]; first compound 4 µM)	relative viability ([2]; first compound 0.04 µM)	relative viability ([2]; first compound 0.1265 µM)	relative viability ([2]; first compound 0.4 µM)	relative viability ([2]; first compound 1.265 µM)	relative viability ([2]; first compound 4 µM)	relative viability ([3]; first compound 0.002 µM)	relative viability ([3]; first compound 0.006325 µM)	relative viability ([3]; first compound 0.02 µM)	relative viability ([3]; first compound 0.06325 µM)	relative viability ([3]; first compound 0.2 µM)	relative viability ([4]; first compound 0.002 µM)	relative viability ([4]; first compound 0.006325 µM)	relative viability ([4]; first compound 0.02 µM)	relative viability ([4]; first compound 0.06325 µM)	relative viability ([4]; first compound 0.2 µM)
NCI-H1666	0.79	0.863	0.676	0.79	0.773	0.801	0.587	0.743	0.761	0.701	0.877	0.717	0.915	0.711	0.419	0.778	0.857	0.818	0.754	0.585
COR-L 105	0.363	0.379	0.31	0.354	0.334	0.567	0.667	0.513	0.615	0.642	0.674	0.686	0.878	0.69	0.707	0.349	0.216	0.399	0.363	0.398
LU99A	0.528	0.617	0.428	0.61	0.646	0.876	0.843	0.777	1.02	0.914	0.73	0.75	0.774	0.87	0.748	0.504	0.441	0.459	0.516	0.542
NCI-H596	0.586	0.631	0.493	0.575	0.549	0.994	0.962	1.06	1.15	0.887	0.98	0.811	0.828	0.898	0.419	0.634	0.642	0.464	0.427	0.414
201T	0.609	0.614	0.476	0.623	0.605	0.876	0.864	0.841	0.904	0.77	1.11	1.2	1.24	1.26	1.18	0.59	0.554	0.592	0.559	0.507
HCC-15	0.614	0.591	0.52	0.674	0.491	0.687	0.692	0.547	0.82	0.622	0.701	0.668	0.702	0.588	0.482	0.661	0.609	0.619	0.31	0.148
